Source: article PMC4303209, “A novel phosphatidylinositol 3-kinase (PI3K) inhibitor directs a potent FOXO-dependent, p53-independent cell cycle arrest phenotype characterized by the differential induction of a subset of FOXO-regulated genes” (Breast Cancer Research : BCR, 2014)

System: MCF-7 breast cancer cells
Experiment: Microarray gene expression analysis (Agilent whole human genome 4 x 44K; compound vs DMSO, LIMMA log2 fold change)
Format: cell-based

Structure (SMILES): Oc1cccc(-c2nc(N3CCOCC3)c3oc4ncccc4c3n2)c1 [PI-103]
- log2FC LATS1 (gene LATS1 (Gene 9113), cell cycle genes): 0.0843
- log2FC (gene LATS2 (Gene 26524), cell cycle genes): 0.38
- LCMT1 log2FC (gene LCMT1 (51451), apoptosis genes): 0.003
- LCN2 log2FC (gene LCN2 (3934), apoptosis genes): 0.063
- log2FC (gene LEMD3 (Gene 23592), cell cycle genes): 0.29
- LGALS1 log2FC (gene LGALS1 (3956), apoptosis genes): 0.053
- LGALS12 log2FC (gene LGALS12 (85329), apoptosis genes): 0.050
- LGALS14 log2FC (gene LGALS14 (56891), apoptosis genes): 0.104
- log2FC (gene LMNA (Gene 4000), cell cycle genes): -0.0134
- LRP1 log2FC (gene LRP1 (4035), apoptosis genes): 0.043
- log2FC (gene LRP6 (Gene 4040), cell cycle genes): -0.12
- log2FC (gene LSM11 (Gene 134353), cell cycle genes): 0.09
- LTA log2FC (gene LTA (4049), apoptosis genes): 0.136
- LTF log2FC (gene LTF (4057), apoptosis genes): 0.014
- MAD2L1 log2FC (gene MAD2L1 (4085), apoptosis genes): -0.145
- MAEL log2FC (gene MAEL (84944), apoptosis genes): -0.172
- log2FC MAEL (gene MAEL (Gene 84944), cell cycle genes): -0.17
- MAGED1 log2FC (gene MAGED1 (9500), apoptosis genes): -0.047
- MAGEH1 log2FC (gene MAGEH1 (28986), apoptosis genes): 0.025
- MAP2K5 log2FC (gene MAP2K5 (5607), apoptosis genes): -0.018
- MAP2K7 log2FC (gene MAP2K7 (5609), apoptosis genes): 0.032
- log2FC (gene MAP3K8 (Gene 1326), cell cycle genes): 0.0265
- log2FC (gene MAP4 (Gene 4134), cell cycle genes): -0.23
- MAPK1 log2FC (gene MAPK1 (5594), apoptosis genes): 0.017
- log2FC (gene MAPK4 (Gene 5596), cell cycle genes): -0.08
- log2FC (gene MAPK6 (Gene 5597), cell cycle genes): 0.12
- MAPK8 log2FC (gene MAPK8 (5599), apoptosis genes): -0.015
- MAPK9 log2FC (gene MAPK9 (5601), apoptosis genes): -0.052
- log2FC (gene MAPK12 (Gene 6300), cell cycle genes): -0.18
- MAPT log2FC (gene MAPT (4137), apoptosis genes): 0.031
- log2FC MCM4 (gene MCM4 (Gene 4173), cell cycle genes): -0.12
- MDM4 log2FC (gene MDM4 (4194), apoptosis genes): -0.144
- log2FC (gene MED25 (Gene 81857), cell cycle genes): -0.19
- MKL1 log2FC (gene MKL1 (57591), apoptosis genes): 0.300
- MKNK1 log2FC (gene MKNK1 (8569), apoptosis genes): 0.102
- MNDA log2FC (gene MNDA (4332), apoptosis genes): 0.077
- MSX2 log2FC (gene MSX2 (4488), apoptosis genes): 0.052
- MT3 log2FC (gene MT3 (4504), apoptosis genes): -0.313
- log2FC (gene MYOG (Gene 4656), cell cycle genes): -0.13
- NACA log2FC (gene NACA (4666), apoptosis genes): 0.038
- log2FC NANOG (gene NANOG (Gene 79923), cell cycle genes): -0.07
- log2FC (gene NASP (Gene 4678), cell cycle genes): 0.16
- NCF1 log2FC (gene NCF1 (653361), apoptosis genes): 0.093
- NCF2 log2FC (gene NCF2 (4688), apoptosis genes): -0.014
- log2FC (gene NCOR1 (Gene 9611), cell cycle genes): 0.25
- NDUFS3 log2FC (gene NDUFS3 (4722), apoptosis genes): 0.064
- NEURL log2FC (gene NEURL (9148), apoptosis genes): 0.053
- NEUROD1 log2FC (gene NEUROD1 (4760), apoptosis genes): 0.039
- log2FC NEUROG1 (gene NEUROG1 (Gene 4762), cell cycle genes): -0.44
- NLE1 log2FC (gene NLE1 (54475), apoptosis genes): 0.195
- NME6 log2FC (gene NME6 (10201), apoptosis genes): -0.015
- log2FC NME6 (gene NME6 (Gene 10201), cell cycle genes): -0.0153
- NOS1AP log2FC (gene NOS1AP (9722), apoptosis genes): 0.021
- NOTCH1 log2FC (gene NOTCH1 (4851), apoptosis genes): -0.008
- NOX5 log2FC (gene NOX5 (79400), apoptosis genes): 0.00161
- log2FC NOX5 (gene NOX5 (Gene 79400), cell cycle genes): 0.00161
- NTRK1 log2FC (gene NTRK1 (4914), apoptosis genes): 0.391
- log2FC (gene NUMA1 (Gene 4926), cell cycle genes): -0.09
- log2FC (gene NUP153 (Gene 9972), cell cycle genes): -0.34
- log2FC NUP155 (gene NUP155 (Gene 9631), cell cycle genes): -0.14
- log2FC (gene NUP188 (Gene 23511), cell cycle genes): -0.16
- NUPR1 log2FC (gene NUPR1 (26471), apoptosis genes): 0.072
- OSR1 log2FC (gene OSR1 (130497), apoptosis genes): -0.027
- P4HB log2FC (gene P4HB (5034), apoptosis genes): 0.036
- log2FC (gene PA2G4 (Gene 5036), cell cycle genes): -0.51
- PAFAH2 log2FC (gene PAFAH2 (5051), apoptosis genes): -0.020
- PAK6 log2FC (gene PAK6 (56924), apoptosis genes): 0.142
- log2FC PAK6 (gene PAK6 (Gene 56924), cell cycle genes): 0.14
- log2FC (gene PAPD5 (Gene 64282), cell cycle genes): 0.31
- PARK7 log2FC (gene PARK7 (11315), apoptosis genes): 0.018
- PAX2 log2FC (gene PAX2 (5076), apoptosis genes): 0.009
- log2FC PCNA (gene PCNA (Gene 5111), cell cycle genes): -0.28
- PCSK9 log2FC (gene PCSK9 (255738), apoptosis genes): -0.221
- log2FC PDCD2L (gene PDCD2L (Gene 84306), cell cycle genes): -0.12
- PDCD5 log2FC (gene PDCD5 (9141), apoptosis genes): -0.049
- PDCL3 log2FC (gene PDCL3 (79031), apoptosis genes): -0.222
- PDE1B log2FC (gene PDE1B (5153), apoptosis genes): 0.019
- PDE3A log2FC (gene PDE3A (5139), apoptosis genes): 0.00129
- log2FC PDE3A (gene PDE3A (Gene 5139), cell cycle genes): 0.00129
